What is called inhibition is the relative decrease from the control value, in per cent. Broadly, the IC50 is the concentration that gives 50% inhibition.

Molecules are shown by their SMILES.

CDK8/Cyclin C, sequence (P49336 whole entry): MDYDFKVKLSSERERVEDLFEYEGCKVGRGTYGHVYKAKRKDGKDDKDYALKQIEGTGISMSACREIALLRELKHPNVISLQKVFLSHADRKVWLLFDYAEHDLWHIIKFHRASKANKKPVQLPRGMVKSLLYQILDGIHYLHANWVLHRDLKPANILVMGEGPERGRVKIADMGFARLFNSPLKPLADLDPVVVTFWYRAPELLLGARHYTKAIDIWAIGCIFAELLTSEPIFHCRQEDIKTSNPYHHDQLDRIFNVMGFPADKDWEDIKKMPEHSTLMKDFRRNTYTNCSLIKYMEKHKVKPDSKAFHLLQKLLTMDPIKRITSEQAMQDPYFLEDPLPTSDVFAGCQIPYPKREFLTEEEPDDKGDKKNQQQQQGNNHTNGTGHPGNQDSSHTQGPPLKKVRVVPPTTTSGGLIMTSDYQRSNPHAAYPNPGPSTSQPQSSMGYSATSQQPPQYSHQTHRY
CDK8/Cyclin C, sequence (P24863 whole entry, further chain): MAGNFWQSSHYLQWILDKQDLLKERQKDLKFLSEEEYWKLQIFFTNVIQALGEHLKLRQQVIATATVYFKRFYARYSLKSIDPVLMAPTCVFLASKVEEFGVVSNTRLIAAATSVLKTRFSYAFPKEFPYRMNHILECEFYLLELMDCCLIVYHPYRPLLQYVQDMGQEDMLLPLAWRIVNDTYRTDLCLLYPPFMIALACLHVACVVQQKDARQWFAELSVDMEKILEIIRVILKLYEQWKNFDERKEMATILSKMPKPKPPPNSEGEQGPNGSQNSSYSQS

The target in the first assay is T1, CDK8/Cyclin C (Homo sapiens) (UniProt P49336+P24863). In words: Inhibition of Alexa647 tracer binding to full length recombinant human His-tagged CDK8/Cyclin C expressed in baculovirus expression system at 1 uM preincubated for 20 mins followed by tracer addition measured after 60 mins by TR-FRET based Lanthascreen assay relative to control. A general note: In TR-FRET formats the signal depends on donor and acceptor labels being close together.
Consider `C=CCNC(=O)C1CC(=O)N(c2ccc(OCC(=O)Nc3cccc(C(F)(F)F)c3)cc2)C1` (stereo not given), for which the inhibition came out at 3%.
On the same count and under the same terms, the value for `O=C(Nc1cccc(Cl)c1)Nc1nnc(CC(=O)N2CCCC2)s1` was 85%; that for `NC(=O)C1CC(=O)N(c2ccc(OCC(=O)Nc3cccc(C(F)(F)F)c3)cc2)C1` (stereo not given) was 12%; that for `Cc1nc(Nc2ccc(NC(=O)Nc3cccc(Cl)c3)cc2)cc(N2CCCCC2)n1` was 14%.
As for `CCNC(=O)c1cn(-c2ccc(SCC(=O)Nc3cccc(C(F)(F)F)c3)nn2)cn1`, the inhibition is 16%.
The same measure, in the same setting: next, `Cc1cc2nc(CSc3ccc(NC(=O)Nc4cccc(C(F)(F)F)c4)cc3)cc(=O)n2o1`: 59%; `COc1ccc(C(=O)N2CCCN(c3ccc(NC(=O)Nc4cccc(C(F)(F)F)c4)cn3)CC2)cc1`: 82%.
Still for that read-out and setting: next, `O=C(Nc1cccc(C(F)(F)F)c1)Nc1nnc(SCc2nc3ccccc3[nH]c2=O)s1`: 100%; `C=CCNC(=O)C1CCN(C(=O)Nc2ccc(NC(=O)Nc3cccc(F)c3)cc2)CC1`: 8%.
Still for that read-out and setting: next, `O=C(CSc1ccc(N2CCCC(C(=O)NC3CC3)C2)nn1)Nc1cccc(C(F)(F)F)c1` (stereo not given): 5%.
Turning to `CC(=O)Nc1ccc(NC(=O)Cc2csc(NC(=O)Nc3cccc(Cl)c3)n2)cc1`, the inhibition is 13%.
Same read-out and setting: next, `Cc1ccc(Nc2cc(Nc3ccc(NC(=O)Nc4cccc(F)c4)cc3)nc(C)n2)cc1`: 5%; `COc1ccc(C(=O)NCc2nnc(SCC(=O)Nc3cccc(C(F)(F)F)c3)o2)cc1OC`: 4%.
Same read-out and setting: next, `CCc1nnc(NS(=O)(=O)c2ccc(NC(=O)Nc3ccc(Cl)c(Cl)c3)cc2)s1`: 59%.

A further assay has as its target CDK8/Cyclin C (Homo sapiens, UniProt P49336). In words: Inhibition of Alexa647 tracer binding to full length recombinant human His-tagged CDK8/Cyclin C expressed in baculovirus expression system preincubated for 20 mins followed by tracer addition measured after 60 mins by TR-FRET based Lanthascreen assay.
For the molecule `O=C(Nc1cccc(Cl)c1)Nc1nnc(CC(=O)N2CCCC2)s1`, the IC50 was 183 nM.
On the same count and under the same terms, the value for `CC(=O)c1cccc(NC(=O)c2nnn(-c3ccc4noc(-c5ccccc5)c4c3)c2C)c1` was 93 nM.
Same read-out and setting: the value for `O=C(NCC1CCN(c2nsc(Cc3ccc(F)cc3)n2)CC1)Nc1ccc(Cl)c(Cl)c1` was 6.5 nM.
On the same count and under the same terms, next, `O=C(Nc1cccc(C(F)(F)F)c1)Nc1nnc(SCc2nc3ccccc3[nH]c2=O)s1`: 9 nM; `COc1ccc(CC(=O)N2CCN(c3ccc(NC(=O)Nc4cccc(C(F)(F)F)c4)cc3)CC2)cc1`: 36 nM.

The target of the next assay is T1, CDK8/Cyclin C (Homo sapiens). In words: Inhibition of Alexa647 tracer binding to full length recombinant human His-tagged CDK8/Cyclin C expressed in baculovirus expression system at 0.5 uM preincubated for 20 mins followed by tracer addition measured after 60 mins by TR-FRET based Lanthascreen assay relative to control.
Regarding `O=C(NCC1CCN(c2nsc(Cc3ccc(F)cc3)n2)CC1)Nc1ccc(Cl)c(Cl)c1`, the inhibition worked out at 101%.
Take `CC(=O)N1CCC2(CC1)CC(=O)c1ccc(OCC(=O)Nc3cccc(C(F)(F)F)c3)cc1O2`: the inhibition is 69%.
Regarding `Cc1nc(Nc2ccc(NC(=O)Nc3cccc(C(F)(F)F)c3)cc2)cc(N2CCCCC2)n1`, the inhibition amounted to 61%.
Regarding `CN[C@@H]1C[C@H]2O[C@@](C)([C@@H]1OC)n1c3ccccc3c3c4c(c5c6ccccc6n2c5c31)C(=O)NC4`, the inhibition was 100%.
The same measure, in the same setting: next, `COc1ccc(CC(=O)N2CCN(c3ccc(NC(=O)Nc4cccc(C(F)(F)F)c4)cc3)CC2)cc1`: 95%.

The next assay shares this target. In words: Inhibition of Alexa647 tracer binding to full length recombinant human His-tagged CDK8/Cyclin C expressed in baculovirus expression system at 5 uM preincubated for 20 mins followed by tracer addition measured after 60 mins by TR-FRET based Lanthascreen assay relative to control.
`Cc1c(C(=O)Nc2ccc3ccc(=O)oc3c2)nnn1-c1ccc2noc(-c3ccccc3)c2c1`: the inhibition came to 52%.
The same measure, in the same setting: next, `COc1ccc(OC)c(NC(=O)Nc2ccc(Cn3cnc(-c4nc(-c5ccc(F)cc5)no4)c3)cc2)c1`: 1%.
Same read-out and setting: next, `O=C(OCc1cc(=O)n2nc(C3CC3)sc2n1)c1ccc(NC(=O)c2cccc3ccccc23)cc1`: 0%.
Still for that read-out and setting: the value for `COc1cc(NC(=O)N2CCN(c3cc(-c4ccc(C)cc4)ncn3)CC2)cc(OC)c1` was -6%; that for `O=C(Cc1ccccc1F)Nc1ccc2ncnc(N3CCCC3)c2c1` was 14%; that for `CCCc1c(C(=O)Nc2ccc(NC(C)=O)cc2)nnn1-c1ccc2noc(-c3ccccc3)c2c1` was 27%.
As to `Cc1cc(C)c2c(n1)SCCN2C(=O)Nc1ccc(C(=O)NCc2cccc(Cl)c2)cc1`, the inhibition turned out to be 0%.
Still for that read-out and setting: the value for `CCOC(=O)Cc1ccc(NC(=O)NC(C(=O)N2CCc3ccccc32)c2ccccc2)cc1` (stereo not given) was 16%; that for `CCOC(=O)Cc1ccc(NC(=O)Nc2cc3c(cc2N2CCCC2)n(CC)c(=O)n3CC)cc1` was 11%; that for `CCOc1ccc(NC(=O)N2CCCC(c3cccc(C(=O)Nc4cccc(Cl)c4)c3)C2)cc1` (stereo not given) was 5%.
Still for that read-out and setting: the value for `CSc1cccc(NC(=O)NC2CCN(c3ccc(F)cc3)C2=O)c1` (stereo not given) was 2%; that for `CC(=O)c1ccc(NC(=O)COc2cc(-c3ccccc3)nc3ccc(F)cc23)cc1` was 10%; that for `O=C(NC1CCCc2ccccc21)C1CCN(C2=CN3C(C=C2)NNC3c2ccc(Cl)cc2)CC1` (stereo not given) was -2%.
Same read-out and setting: the value for `CC(=O)c1cccc(NC(=O)c2nnn(-c3ccc4noc(-c5ccccc5)c4c3)c2C)c1` was 80%; that for `CCc1ccc(-n2c(SCc3ccccc3C)nc3[nH]ncc3c2=O)cc1` was 10%; that for `O=C(NC1C2CS(=O)(=O)CC2NN1c1ccc(F)cc1)c1ccc(C(=O)c2ccccc2)cc1` (stereo not given) was 0%.
With `Cc1ccc(Cl)cc1N1CCN(C(=O)c2noc3ncnc(N4CCCC4)c23)CC1`, the inhibition was determined as 4%.
Same read-out and setting: next, `CCC(=O)Nc1nc2cc(NC(=O)c3cc(-c4ccccc4)nc4c(C)cccc34)ccc2s1`: 0%; `COc1ccc(CNC(=O)Cn2cnc3c(C(N)=O)nsc3c2=O)cc1`: 4%; `Cc1ccc(Cl)cc1N1CCN(c2ncnc3sc(C(=O)O)c(C)c23)CC1`: 75%.
Take `O=C(NCC1CCN(c2nsc(Cc3ccc(F)cc3)n2)CC1)Nc1ccc(Cl)c(Cl)c1`: the inhibition stood at 101%.
The same measure, in the same setting: next, `CCn1c(=O)c(=O)n(CC(=O)NCc2ccccc2)c2ccccc21`: -2%; `CN1C(=O)c2ccccc2C(C(=O)Nc2ccc(S(=O)(=O)N3CCCCC3)cc2)C1c1cccs1` (stereo not given): -6%; `CCOC(=O)c1c(C)oc2ncnc(NCCc3ccc(OCC)cc3)c12`: 9%.
Same read-out and setting: the value for `CC(=O)N1CCC2(CC1)CC(=O)c1ccc(OCC(=O)Nc3cccc(C(F)(F)F)c3)cc1O2` was 95%.
As to `Cc1nc(Nc2ccc(NC(=O)Nc3cccc(C(F)(F)F)c3)cc2)cc(N2CCCCC2)n1`, the inhibition came to 97%.
The same measure, in the same setting: the value for `O=C(Cc1ccc(NC(=O)N2CCSc3ncccc32)cc1)NCc1cccc(Cl)c1` was 14%; that for `O=C1Nc2ccc(F)cc2/C1=N\Nc1ccc(C(=O)N2CCCC2COc2ccc(F)cc2)cc1` (stereo not given) was 3%.
Still for that read-out and setting: next, `CCNc1c(NC(=O)NCc2ccc(C)cc2)c(=O)oc2ccccc12`: -3%; `Cc1ccc(-c2nccc(Nc3cccc(C(=O)NCc4ccc(C(C)C)cc4)c3)n2)cc1`: 2%.
On the same count and under the same terms, the value for `Cc1ccc(NC(=O)CCc2nc3ccncc3[nH]2)cc1F` was 7%; that for `O=C(Nc1ccc(Cl)cc1)N1CCCC(c2cccc(C(=O)N3CCC4(CC3)OCCO4)c2)C1` (stereo not given) was -3%; that for `O=C(Nc1ccc2c(c1)OCCO2)c1cccc(Nc2cc(-c3ccc(F)cc3)ncn2)c1` was 4%.
`Cc1noc2ncnc(N3CCC(C(=O)NCCCN4CCOCC4)CC3)c12`: the inhibition stood at 1%.
The same measure, in the same setting: next, `Fc1ccc(-c2noc3ncnc(N4CCN(c5ccccn5)CC4)c23)cc1`: 19%; `COc1ccc(-n2nc(C(=O)NCC(=O)N3CCC(Cc4ccccc4)CC3)c3ccccc3c2=O)cc1`: 0%.
Still for that read-out and setting: next, `Fc1ccc(N2CCN(c3ncnc4sc5c(c34)CCCC5)CC2)cc1`: 81%; `CCCn1c(=O)oc2cc(NC(=O)Nc3cccc(C)c3)ccc21`: 18%.
The same measure, in the same setting: next, `CN[C@@H]1C[C@H]2O[C@@](C)([C@@H]1OC)n1c3ccccc3c3c4c(c5c6ccccc6n2c5c31)C(=O)NC4`: 99%; `COc1ccc(CC(=O)N2CCN(c3ccc(NC(=O)Nc4cccc(C(F)(F)F)c4)cc3)CC2)cc1`: 99%.
For the molecule `CNc1nccc(N2CCC(CC(=O)NCc3nc4ccccc4n3C)CC2)n1`, the inhibition is 24%.
On the same count and under the same terms, the value for `Cc1oc2ccccc2c1C(=O)CSc1nc(O)c2c(n1)NCN2` was 14%.
On the same count and under the same terms, the value for `Cc1ccc(N2Cc3c(ncnc3N3CCCC(C(=O)NCc4cccc(C(F)(F)F)c4)C3)N2)cc1` (stereo not given) was -7%.
Same read-out and setting: the value for `CC(=O)c1ccc(NC(=O)COc2cc(C(F)(F)F)c3c(C)nn(-c4ccc(C)cc4)c3n2)cc1` was -6%; that for `COc1cccc(NC(=O)CSc2nc3ccc(NC(=O)Nc4cc(C)cc(C)c4)cc3s2)c1` was 20%; that for `CN(C)c1ccc(CNC(=O)C2CCN(c3ccc4nncn4n3)CC2)cc1` was 0%.
Regarding `Cc1ccc(-c2nc(C)cc(OCC(=O)Nc3ccc(C#N)cc3)n2)cc1`, the inhibition was -4%.
On the same count and under the same terms, the value for `O=C(Nc1ccco1)NC1CCN(c2ncnc3c2CCC3)C1` (stereo not given) was 15%; that for `CCc1ccc(NC(=O)c2c(O)c3ccccc3n(CC)c2=O)cc1` was 46%.
Still for that read-out and setting: next, `Cc1cccc(N2CCN(c3ncnc4onc(C)c34)CC2)c1C`: 28%; `O=C(Nc1cccc2ccccc12)c1cccc(C2CSC(S(=O)(=O)N3CCOCC3)C2)c1` (stereo not given): -1%.
Still for that read-out and setting: next, `NNc1cc(N2CCN(c3ccccc3F)CC2)ncn1`: 3%; `O=C(Nc1c(C(=O)c2ccccc2)oc2ccccc12)c1cc(-c2ccc3c(c2)OCCO3)on1`: 18%.
Consider `Cc1ccc2sc(NNC(=O)c3ccc(S(=O)(=O)CN4CCc5ccccc5C4)cc3)nc2c1C`, for which the inhibition turned out to be 6%.
On the same count and under the same terms, next, `Cc1ccc(-n2ncc(C(C)(C)C)c2NC(=O)CN(C)C(=O)Nc2ccccc2C)c(C)c1`: 13%; `COc1ccc(CNC(=O)C2CCCN(c3cnc4nccnc4c3)C2)cc1` (stereo not given): 3%.

For a further assay the target is unchanged. In words: Inhibition of Alexa647 tracer binding to full length recombinant human His-tagged CDK8/Cyclin C expressed in baculovirus expression system at 2.5 uM preincubated for 20 mins followed by tracer addition measured after 60 mins by TR-FRET based Lanthascreen assay relative to control.
In the case of `CC(=O)Nc1ccc(NC(=O)c2ccc3noc(-c4ccc(Cl)cc4)c3c2)cc1`, the inhibition was 43%.
The same measure, in the same setting: next, `CC(=O)Nc1ccc(NC(=O)c2nnn(-c3ccc4noc(-c5ccccc5)c4c3)c2C)cc1`: 59%; `Cc1c(C(=O)Nc2ccc(-n3cnnn3)cc2)nnn1-c1ccc2noc(-c3ccccc3)c2c1`: -2%; `Cc1c(C(=O)Nc2cccc(C(F)(F)F)c2)nnn1-c1ccc2noc(-c3ccc(Cl)cc3)c2c1`: 19%.
Same read-out and setting: next, `CC(=O)Nc1ccc(NC(=O)c2nnn(-c3ccc4noc(-c5ccc(Cl)cc5)c4c3)c2C)cc1`: 4%.

These data come from ChEMBL document CHEMBL4004862, “Discovery of novel CDK8 inhibitors using multiple crystal structures in docking-based virtual screening” (Eur J Med Chem, 2017).
